Assays:
[1] = test system: gastric cancer KATO III cells; test: Cell viability (Cell-Titer GLO), 4 days, gastric cancer cells; assay type: cell-based, human
Method: Experiments were independently performed three times.
(§1) For cell viability, cells were seeded in 96-well plates at 1500-2500 cells per well (optimum density for growth, depending on the specific cell line) in a total volume of 100 μl media. Serially diluted compounds in 100 μl of media were added to the cells 12 hours later. After 4 days of incubation, Cell-Titer GLO reagents (Promega) were added and luminescence was measured on GLOMAX microplate luminometer (Promega), according to the manufacturer's instructions. All experimental points were set up as sextuplicate as biological replication and the entire experiments were repeated three times. The data are presented as percentage of viable cells with vehicle treated cells set as 100.

HCC70 cells = test: Cell viability (CellTiter-GLO), 4 days, TNBC cells; assay type: cell-based, human
Method: (§2) The “No.” label for each compound corresponds to the “Structure No.” in Table 2 (e.g., “No. 36”=“Structure No. 36” in Table 2). The cell viability curves were measured by CellTiter-GLO.
as §1, with “growth)” for “growth, depending on the specific cell line)”, “100. The estimated in vitro IC50 values were calculated using GraphPad Prism 6 software.” for “100.”

MDA-MB468 cells = test: Cell viability (CellTiter-GLO), 4 days, TNBC cells; assay type: cell-based, human
Method: as §2
as §1, with “growth)” for “growth, depending on the specific cell line)”, “100. The estimated in vitro IC50 values were calculated using GraphPad Prism 6 software.” for “100.”

[2] = test system: prostate cancer C4-2B cells; test: Cell viability (Cell-Titer GLO), 4 days, prostate cancer cells; assay type: cell-based, human
Method: The “No.” label for each compound corresponds to the “Structure No.” in Table 2 (e.g., “No. 36”=“Structure No. 36” in Table 2). Experiments were independently performed three times.
as §1, with “100. The estimated in vitro IC50 values were calculated using GraphPad Prism 6 software.” for “100.”

MCF-7-TamR = test: Growth and survival of tamoxifen-resistant breast cancer cells; assay type: cell-based, human; conditions: MCF-7-TamR, 1 μM of 4(OH)-tamoxifen alone
[3] = test system: SUM159 orthotopic xenograft tumors; test: TNBC SUM159 orthotopic xenograft tumor growth in SCID mice; assay type: in vivo, mouse; conditions: 5 mg/kg, i.p., 5 times per week, 45 days
Method: Orthotopic xenograft tumor models and chemical compound treatments: Four-week-old female SCID C.B17 mice (for TNBC SUM159 cell lines) were purchased from Harlan Inc. For establishing tumors, 2×10^6 cells were suspended in total of 100 μL PBS/Matrigel (1:1) and implanted orthotopically into the 4th inguinal mammary fat pads at both sides. Animal group size of six or more was estimated to have a high statistical power, based on power calculation (www.biomath.info/pgwer/) and 20 previous studies involving the same xenograft models. When the tumor volume was approximately 50 mm^3, the mice were randomized and then treated intraperitoneally (i.p.) with 100 μl of vehicle or RORγ inhibitors F18/No. 37, 5 mg/kg; GSK805, 5 mg/kg; GNE3500, 5 mg/kg. (in a formulation of 15% Cremophor EL, Calbiochem, 82.5% PBS, and 2.5% DMSO) for five times per week. Tumor growth was monitored by calipers with volume calculated using the equation: π/6 (length×width^2). Mouse body weight during the course of the study was also monitored. At the end of the studies, mice were killed and tumors were dissected and weighed.

SMILES: CC(=O)N1CCN(c2ccc(CN3[C@@H](C)CC[C@H](c4ccccc4)S3(=O)=O)c(F)c2)CC1 [GNE3500]
- inhibition of growth and survival [1]: strongly inhibited the growth and survival

SMILES: COC(=O)CCCC(=O)Nc1ccc(-c2ccc(C(O)(C(F)(F)F)C(F)(F)F)cc2F)cc1 [F68, Methyl-5-((2′-fluoro-4′-(1,1,1,3,3,3-hexafluoro-2-hydroxypropan-2-yl)-[1,1′-biphenyl]-4-yl)amino)-5-oxopentanoate]
- inhibition of growth and survival (HCC70 cells): strongly inhibited the growth and survival
- inhibition of growth and survival (MDA-MB468 cells): strongly inhibited the growth and survival
- inhibition of growth and survival [2]: strongly inhibited the growth and survival

SMILES: CC/C(=C(\c1ccccc1)c1ccc(OCCN(C)C)cc1)c1ccccc1 [tamoxifen, reference compound]
- growth inhibitory effect, tamoxifen alone (MCF-7-TamR): did not show any inhibitory effect

SMILES: OC(c1ccc(-c2ccc(CN3CCN(Cc4ccncc4)CC3)cc2)c(F)c1)(C(F)(F)F)C(F)(F)F [SR2211]
- inhibition of growth and survival [1]: strongly inhibited the growth and survival

SMILES: O=C(CCCC1CCCCC1)Nc1ccc(-c2ccc(C(O)(C(F)(F)F)C(F)(F)F)cc2F)cc1 [F65, 4-cyclohexyl-N-(2′-fluoro-4′-(1,1,1,3,3,3-hexafluoro-2-hydroxypropan-2-yl)-[1,1′-biphenyl]-4-yl)butanamide]
- inhibition of growth and survival (HCC70 cells): strongly inhibited the growth and survival
- inhibition of growth and survival (MDA-MB468 cells): strongly inhibited the growth and survival
- inhibition of growth and survival [2]: strongly inhibited the growth and survival

SMILES: O=C(CCC(F)(F)F)Nc1ccc(-c2ccc(C(O)(C(F)(F)F)C(F)(F)F)cc2F)cc1 [F63, 4,4,4-trifluoro-N-(2′-fluoro-4′-(1,1,1,3,3,3-hexafluoro-2-hydroxypropan-2-yl)-[1,1′-biphenyl]-4-yl)butanamide]
- inhibition of growth and survival (HCC70 cells): strongly inhibited the growth and survival
- inhibition of growth and survival (MDA-MB468 cells): strongly inhibited the growth and survival
- inhibition of growth and survival [2]: strongly inhibited the growth and survival

SMILES: O=C(Cc1ccc([N+](=O)[O-])cc1)Nc1ccc(-c2ccc(C(O)(C(F)(F)F)C(F)(F)F)cc2F)cc1 [F17, N-(2′-fluoro-4′-(1,1,1,3,3,3-hexafluoro-2-hydroxypropan-2-yl)-[1,1′-biphenyl]-4-yl)-2-(4-nitrophenyl)acetamide]
- inhibition of growth and survival (HCC70 cells): strongly inhibited the growth and survival
- inhibition of growth and survival (MDA-MB468 cells): strongly inhibited the growth and survival
- inhibition of growth and survival [2]: strongly inhibited the growth and survival

SMILES: O=C(CCc1ccccc1)Nc1ccc(-c2ccc(C(O)(C(F)(F)F)C(F)(F)F)cc2F)cc1 [F62, N-(2′-fluoro-4′-(1,1,1,3,3,3-hexafluoro-2-hydroxypropan-2-yl)-[1,1′-biphenyl]-4-yl)-3-phenylpropanamide]
- inhibition of growth and survival (HCC70 cells): strongly inhibited the growth and survival
- inhibition of growth and survival (MDA-MB468 cells): strongly inhibited the growth and survival
- inhibition of growth and survival [2]: strongly inhibited the growth and survival

SMILES: CCCCCCC(=O)Nc1ccc(-c2ccc(C(O)(C(F)(F)F)C(F)(F)F)cc2F)cc1 [F64, N-(2′-fluoro-4′-(1,1,1,3,3,3-hexafluoro-2-hydroxypropan-2-yl)-[1,1′-biphenyl]-4-yl)heptanamide]
- inhibition of growth and survival (HCC70 cells): strongly inhibited the growth and survival
- inhibition of growth and survival (MDA-MB468 cells): strongly inhibited the growth and survival
- inhibition of growth and survival [2]: strongly inhibited the growth and survival

SMILES: CCS(=O)(=O)c1ccc(CC(=O)Nc2cc(Cl)c(-c3ccccc3OC(F)(F)F)c(Cl)c2)cc1 [GSK805, reference compound]
- inhibition of growth and survival [1]: strongly inhibited the growth and survival
- orthotopic tumor growth inhibition [3]: Strong tumor growth inhibition

Source: patent US20210161837A1, “METHODS FOR TREATING CANCER WITH RORGAMMA INHIBITORS” (The Regents of the University of California, priority 2016, published 2021)
